Assay results as given in article PMC7419507, “In vitro Cas9-assisted editing of modular polyketide synthase genes to produce desired natural product derivatives” (Nature Communications, 2020).
Several values for one entry are separate records, joined by “and”; a condition that tells them apart may be missing. Identical values can stand only once.

Tests used:
[1] = system: Jurkat, SKOV-3 and MESO-1 cells; assay: Cytotoxicity assay, statements for all tested cell lines together; format: cell-based; details: Jurkat, SKOV-3 and MESO-1 cells, 72 h
Procedure, shortened: (§1)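 Incubate 4 h at 37 °C, 5% CO2. Add 2-fold compound dilutions, 0.5% DMSO. After 72 h, read CellTiter-Glo luminescence.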

[2] = Cytotoxicity assay (CellTiter-Glo, 72 h), MESO-1; format: cell-based; details: human, MESO-1 malignant pleural mesothelioma cells, raw replicate data, read-out: MESO1 viability (%)
Procedure, shortened: as §1

[3] = system: malignant pleural mesothelioma MESO-1 cells; assay: Cytotoxicity assay (CellTiter-Glo, 72 h), MESO-1; format: cell-based; details: raw replicate data
Procedure, shortened: as §1

[4] = Cytotoxicity assay (CellTiter-Glo, 72 h), Jurkat; format: cell-based; details: human, Jurkat cells (T lymphoma), raw data (replicates)
Procedure, shortened: as §1

T lymphoma Jurkat cells = assay: Cytotoxicity assay (CellTiter-Glo, 72 h), Jurkat; format: cell-based; details: raw data (replicates)
Procedure, shortened: as §1

[5] = Cytotoxicity assay (CellTiter-Glo, 72 h), SKOV-3; format: cell-based, human; details: human, raw replicate data, read-out: SKOV3 viability (%)
Procedure, shortened: as §1

[6] = system: human ovarian adenocarcinoma SKOV-3 cells; assay: Cytotoxicity assay (CellTiter-Glo, 72 h), SKOV-3; format: cell-based; details: raw replicate data
Procedure, shortened: as §1

Structure (SMILES): COC1CC2CCC(C)C(O)(O2)C(=O)C(=O)N2CCCCC2C(=O)OC(C(C)CC2CCC(O)C(OC)C2)CC(O)CC(=O)C(C)C=C(C)C(O)CC(=O)C(C)CC(C)C=CC=CC=C1C (stereo not shown) [Compound 13]
- Effect on cell viability, in words [1]: slightly suppressed the cell viabilities
- viability at 72 h, 9.53674e-05 uM ([2]; conc 9.53674e-5 uM): 107%
- viability at 72 h, 0.000190735 uM ([2]; conc 0.000190735 uM): 109%
- viability at 72 h, 0.00038147 uM ([2]; conc 0.00038147 uM): 103%
- viability at 72 h, 0.000762939 uM ([2]; conc 0.000762939 uM): 96.5%
- viability at 72 h, 0.00152588 uM ([2]; conc 0.00152588 uM): 103%
- viability at 72 h, 0.00305176 uM ([2]; conc 0.00305176 uM): 101%
- viability at 72 h, 0.00610352 uM ([2]; conc 0.00610352 uM): 108%
- viability at 72 h, 0.012207 uM ([2]; conc 0.012207 uM): 101%
- viability at 72 h, 0.0244141 uM ([2]; conc 0.0244141 uM): 95.9%
- viability at 72 h, 0.0488281 uM ([2]; conc 0.0488281 uM): 92.5%
- viability at 72 h, 0.0976562 uM ([2]; conc 0.0976562 uM): 82%
- viability at 72 h, 0.195312 uM ([2]; conc 0.195312 uM): 74.6%
- viability at 72 h, 0.390625 uM ([2]; conc 0.390625 uM): 77.6%
- viability at 72 h, 0.78125 uM ([2]; conc 0.78125 uM): 68.5%
- viability at 72 h, 1.5625 uM ([2]; conc 1.5625 uM): 71.4%
- viability at 72 h, 3.125 uM ([2]; conc 3.125 uM): 70.6%
- viability at 72 h, 6.25 uM ([2]; conc 6.25 uM): 68.1%
- viability at 72 h, 12.5 uM ([2]; conc 12.5 uM): 69.4%
- viability at 72 h, 25 uM ([2]; conc 25 uM): 61.7%
- viability at 72 h, 50 uM ([2]; conc 50 uM): 32.5%
- MESO1 viability (%) ([3]; conc 9.53674e-5 uM): 98.4% and 101.6%
- MESO1 viability (%) ([3]; conc 0.000190735 uM): 99.7% and 102.2%
- MESO1 viability (%) ([3]; conc 0.00038147 uM): 106.9% and 102.5%
- MESO1 viability (%) ([3]; conc 0.000762939 uM): 98.2% and 93.2%
- MESO1 viability (%) ([3]; conc 0.00152588 uM): 104.8% and 103.9%
- MESO1 viability (%) ([3]; conc 0.00305176 uM): 98.6% and 103.9%
- MESO1 viability (%) ([3]; conc 0.00610352 uM): 105.0% and 100.2%
- MESO1 viability (%) ([3]; conc 0.012207 uM): 91.1%
- MESO1 viability (%) ([3]; conc 0.0244141 uM): 101.5% and 98.1%
- MESO1 viability (%) ([3]; conc 0.0488281 uM): 89.5% and 85.7%
- MESO1 viability (%) ([3]; conc 0.0976562 uM): 82.3% and 85.5%
- MESO1 viability (%) ([3]; conc 0.195312 uM): 72.4% and 76.8%
- MESO1 viability (%) ([3]; conc 0.390625 uM): 77.4% and 73.9%
- MESO1 viability (%) ([3]; conc 0.78125 uM): 67.0% and 66.3%
- MESO1 viability (%) ([3]; conc 1.5625 uM): 65.2% and 74.0%
- MESO1 viability (%) ([3]; conc 3.125 uM): 66.5% and 63.4%
- MESO1 viability (%) ([3]; conc 6.25 uM): 73.7% and 75.2%
- MESO1 viability (%) ([3]; conc 12.5 uM): 72.5% and 66.5%
- MESO1 viability (%) ([3]; conc 25 uM): 64.3% and 66.3%
- MESO1 viability (%) ([3]; conc 50 uM): 29.9% and 28.1%
- viability at 72 h, 9.53674e-05 uM ([4]; conc 9.53674e-5 uM): 100%
- viability at 72 h, 0.000190735 uM ([4]; conc 0.000190735 uM): 100%
- viability at 72 h, 0.00038147 uM ([4]; conc 0.00038147 uM): 108%
- viability at 72 h, 0.000762939 uM ([4]; conc 0.000762939 uM): 103%
- viability at 72 h, 0.00152588 uM ([4]; conc 0.00152588 uM): 98.1%
- viability at 72 h, 0.00305176 uM ([4]; conc 0.00305176 uM): 102%
- viability at 72 h, 0.00610352 uM ([4]; conc 0.00610352 uM): 100%
- viability at 72 h, 0.012207 uM ([4]; conc 0.012207 uM): 99.4%
- viability at 72 h, 0.0244141 uM ([4]; conc 0.0244141 uM): 103%
- viability at 72 h, 0.0488281 uM ([4]; conc 0.0488281 uM): 91.3%
- viability at 72 h, 0.0976562 uM ([4]; conc 0.0976562 uM): 69.5%
- viability at 72 h, 0.195312 uM ([4]; conc 0.195312 uM): 47.2%
- viability at 72 h, 0.390625 uM ([4]; conc 0.390625 uM): 37.5%
- viability at 72 h, 0.78125 uM ([4]; conc 0.78125 uM): 31.7%
- viability at 72 h, 1.5625 uM ([4]; conc 1.5625 uM): 30.7%
- viability at 72 h, 3.125 uM ([4]; conc 3.125 uM): 30.2%
- viability at 72 h, 6.25 uM ([4]; conc 6.25 uM): 29.2%
- viability at 72 h, 12.5 uM ([4]; conc 12.5 uM): 30.8%
- viability at 72 h, 25 uM ([4]; conc 25 uM): 24.7%
- viability at 72 h, 50 uM ([4]; conc 50 uM): 2.2%
- Jurkat viability (%) (T lymphoma Jurkat cells; conc 9.53674e-5 uM): 112.6% and 105.4%
- Jurkat viability (%) (T lymphoma Jurkat cells; conc 0.000190735 uM): 101.3% and 101.6%
- Jurkat viability (%) (T lymphoma Jurkat cells; conc 0.00038147 uM): 104.4% and 104.8%
- Jurkat viability (%) (T lymphoma Jurkat cells; conc 0.000762939 uM): 96.6% and 102.2%
- Jurkat viability (%) (T lymphoma Jurkat cells; conc 0.00152588 uM): 101.0% and 107.9%
- Jurkat viability (%) (T lymphoma Jurkat cells; conc 0.00305176 uM): 103.0% and 101.6%
- Jurkat viability (%) (T lymphoma Jurkat cells; conc 0.00610352 uM): 107.7% and 103.5%
- Jurkat viability (%) (T lymphoma Jurkat cells; conc 0.012207 uM): 102.1% and 101.9%
- Jurkat viability (%) (T lymphoma Jurkat cells; conc 0.0244141 uM): 102.7% and 105.0%
- Jurkat viability (%) (T lymphoma Jurkat cells; conc 0.0488281 uM): 92.1% and 89.3%
- Jurkat viability (%) (T lymphoma Jurkat cells; conc 0.0976562 uM): 67.5% and 74.1%
- Jurkat viability (%) (T lymphoma Jurkat cells; conc 0.195312 uM): 42.7% and 42.9%
- Jurkat viability (%) (T lymphoma Jurkat cells; conc 0.390625 uM): 37.1% and 36.6%
- Jurkat viability (%) (T lymphoma Jurkat cells; conc 0.78125 uM): 31.2% and 32.9%
- Jurkat viability (%) (T lymphoma Jurkat cells; conc 1.5625 uM): 32.3%
- Jurkat viability (%) (T lymphoma Jurkat cells; conc 3.125 uM): 28.8% and 27.1%
- Jurkat viability (%) (T lymphoma Jurkat cells; conc 6.25 uM): 32.0% and 30.5%
- Jurkat viability (%) (T lymphoma Jurkat cells; conc 12.5 uM): 29.9%
- Jurkat viability (%) (T lymphoma Jurkat cells; conc 25 uM): 25.3% and 24.9%
- Jurkat viability (%) (T lymphoma Jurkat cells; conc 50 uM): 1.7% and 1.8%
- viability at 72 h, 9.53674e-05 uM ([5]; SKOV-3 cells (ovarian adenocarcinoma), conc 9.53674e-5 uM): 101%
- viability at 72 h, 0.000190735 uM ([5]; SKOV-3 cells (ovarian adenocarcinoma), conc 0.000190735 uM): 105%
- viability at 72 h, 0.00038147 uM ([5]; SKOV-3 cells (ovarian adenocarcinoma), conc 0.00038147 uM): 103%
- viability at 72 h, 0.000762939 uM ([5]; SKOV-3 cells (ovarian adenocarcinoma), conc 0.000762939 uM): 104%
- viability at 72 h, 0.00152588 uM ([5]; SKOV-3 cells (ovarian adenocarcinoma), conc 0.00152588 uM): 106%
- viability at 72 h, 0.00305176 uM ([5]; SKOV-3 cells (ovarian adenocarcinoma), conc 0.00305176 uM): 104%
- viability at 72 h, 0.00610352 uM ([5]; SKOV-3 cells (ovarian adenocarcinoma), conc 0.00610352 uM): 104%
- viability at 72 h, 0.012207 uM ([5]; SKOV-3 cells (ovarian adenocarcinoma), conc 0.012207 uM): 100%
- viability at 72 h, 0.0244141 uM ([5]; SKOV-3 cells (ovarian adenocarcinoma), conc 0.0244141 uM): 97.8%
- viability at 72 h, 0.0488281 uM ([5]; SKOV-3 cells (ovarian adenocarcinoma), conc 0.0488281 uM): 100%
- viability at 72 h, 0.0976562 uM ([5]; SKOV-3 cells (ovarian adenocarcinoma), conc 0.0976562 uM): 93.5%
- viability at 72 h, 0.195312 uM ([5]; SKOV-3 cells (ovarian adenocarcinoma), conc 0.195312 uM): 80.1%
- viability at 72 h, 0.390625 uM ([5]; SKOV-3 cells (ovarian adenocarcinoma), conc 0.390625 uM): 72.3%
- viability at 72 h, 12.5 uM ([5]; SKOV-3 cells (ovarian adenocarcinoma), conc 12.5 uM): 74%
- viability at 72 h, 25 uM ([5]; SKOV-3 cells (ovarian adenocarcinoma), conc 25 uM): 76.6%
- viability at 72 h, 50 uM ([5]; SKOV-3 cells (ovarian adenocarcinoma), conc 50 uM): 61.1%
- viability at 72 h, 0.78125 uM ([5]; SKOV-3 ovarian adenocarcinoma cells, conc 0.78125 uM): 70.5%
- viability at 72 h, 1.5625 uM ([5]; SKOV-3 ovarian adenocarcinoma cells, conc 1.5625 uM): 74.6%
- viability at 72 h, 3.125 uM ([5]; SKOV-3 ovarian adenocarcinoma cells, conc 3.125 uM): 67.3%
- viability at 72 h, 6.25 uM ([5]; SKOV-3 ovarian adenocarcinoma cells, conc 6.25 uM): 76.1%
- SKOV3 viability (%) ([6]; conc 9.53674e-5 uM): 107.4% and 106.9%
- SKOV3 viability (%) ([6]; conc 0.000190735 uM): 98.8% and 103.7%
- SKOV3 viability (%) ([6]; conc 0.00038147 uM): 108.6% and 110.4%
- SKOV3 viability (%) ([6]; conc 0.000762939 uM): 108.3% and 103.9%
- SKOV3 viability (%) ([6]; conc 0.00152588 uM): 101.0% and 99.9%
- SKOV3 viability (%) ([6]; conc 0.00305176 uM): 105.3% and 103.9%
- SKOV3 viability (%) ([6]; conc 0.00610352 uM): 110.1% and 106.3%
- SKOV3 viability (%) ([6]; conc 0.012207 uM): 101.2% and 96.8%
- SKOV3 viability (%) ([6]; conc 0.0244141 uM): 104.0%
- SKOV3 viability (%) ([6]; conc 0.0488281 uM): 98.0% and 96.8%
- SKOV3 viability (%) ([6]; conc 0.0976562 uM): 97.2% and 95.3%
- SKOV3 viability (%) ([6]; conc 0.195312 uM): 69.7% and 74.1%
- SKOV3 viability (%) ([6]; conc 0.390625 uM): 69.6% and 63.1%
- SKOV3 viability (%) ([6]; conc 0.78125 uM): 63.6% and 66.9%
- SKOV3 viability (%) ([6]; conc 1.5625 uM): 66.7%
- SKOV3 viability (%) ([6]; conc 3.125 uM): 68.3% and 74.5%
- SKOV3 viability (%) ([6]; conc 6.25 uM): 79.3% and 78.5%
- SKOV3 viability (%) ([6]; conc 12.5 uM): 75.9%
- SKOV3 viability (%) ([6]; conc 25 uM): 73.5% and 81.4%
- SKOV3 viability (%) ([6]; conc 50 uM): 55.5% and 58.9%
